Where a name gives a salt, the structure may show the parent alone.
Tests used:
CYP142A1 C110S [1] = molecular target: T1, CYP142A1 C110S (Mycobacterium tuberculosis, UniProt P9WPL5, C110S); assay type: biochemical
CYP142A1 C281S [2] = molecular target: T2, CYP142A1 C281S (Mycobacterium tuberculosis, UniProt P9WPL5, C281S); assay type: biochemical
CYP142A1 C296S [3] = molecular target: T3, CYP142A1 C296S (Mycobacterium tuberculosis, UniProt P9WPL5, C296S); assay type: biochemical
CYP142A1 C123S [4] = molecular target: T4, CYP142A1 C123S (Mycobacterium tuberculosis, UniProt P9WPL5, C123S); assay type: biochemical
CYP142A1 C118S [5] = molecular target: T5, CYP142A1 C118S (Mycobacterium tuberculosis, UniProt P9WPL5, C118S); assay type: biochemical
CYP142A1 C316S [6] = molecular target: T6, CYP142A1 C316S (Mycobacterium tuberculosis, UniProt P9WPL5, C316S); assay type: biochemical
CYP142A1 C316S [7] = molecular target: T6, CYP142A1 C316S; conditions: pH 7.4
CYP142A1 C118S [8] = molecular target: T5, CYP142A1 C118S; conditions: pH 7.4
CYP142A1 C296S [9] = molecular target: T3, CYP142A1 C296S; conditions: pH 7.4
CYP142A1 C110S [10] = molecular target: T1, CYP142A1 C110S; conditions: pH 7.4
CYP142A1 C123S [11] = molecular target: T4, CYP142A1 C123S; conditions: pH 7.4
CYP142A1 C281S [12] = molecular target: T2, CYP142A1 C281S; conditions: pH 7.4

## CC(C)CCC[C@@H](C)[C@H]1CC[C@H]2[C@@H]3CCC4=CC(=O)CC[C@]4(C)[C@H]3CC[C@]12C [Cholest-4-en-3-one]
CYP142A1 C110S [1]
  kcat: 0.11 ± 0.0113 s⁻¹
CYP142A1 C281S [2]
  kcat: 0.0917 ± 0.00617 s⁻¹
CYP142A1 C296S [3]
  kcat: 0.0767 ± 0.00583 s⁻¹
CYP142A1 C123S [4]
  kcat: 0.085 ± 0.00617 s⁻¹
CYP142A1 C118S [5]
  kcat: 0.0933 ± 0.00633 s⁻¹
CYP142A1 C316S [6]
  kcat: 0.0783 ± 0.00617 s⁻¹

## CC(C)CCC[C@@H](C)[C@H]1CC[C@H]2[C@@H]3CC=C4C[C@@H](OS(=O)(=O)O)CC[C@]4(C)[C@H]3CC[C@]12C [Cholesteryl sulfate]
CYP142A1 C316S [7]
  Kd: 26 ± 8 µM
CYP142A1 C118S [8]
  Kd: 33 ± 4.3 µM
CYP142A1 C296S [9]
  Kd: 25 ± 9.6 µM
CYP142A1 C110S [10]
  Kd: 37 ± 8.7 µM
CYP142A1 C123S [11]
  Kd: 35 ± 9.3 µM
CYP142A1 C281S [12]
  Kd: 37 ± 8.8 µM

## Cholesteryl propionate
CYP142A1 C316S [7]
  Kd: 46 ± 6.8 µM
CYP142A1 C118S [8]
  Kd: 43 ± 10 µM
CYP142A1 C296S [9]
  Kd: 48 ± 5.9 µM
CYP142A1 C110S [10]
  Kd: 35 ± 4.9 µM
CYP142A1 C123S [11]
  Kd: 23 ± 5 µM
CYP142A1 C281S [12]
  Kd: 47 ± 7.6 µM

Source: article PMC9425443 (RSC Advances, 2022)
